Measurements published in patent US12668803B2, “Glypican-3-specific modified aptamer and use thereof” (APTAMER SCIENCES INC., priority 2019, dated 2026).

Experiments:
[1] = tested on: GPC3-expressing hepatoma cells; assay: Cell-killing effect (CCK-8) of gemcitabine-bound combi aptamers; type: cell-based; settings: FIG. 23 and FIG. 24
Description: In detail, Huh-7 cells (ATCC, Rockville, MD, USA) were seeded in a 96-well plate at a density of 1×10^4/mL, and cultured using a DMEM (Gibco, Grand Island, NY, USA) medium containing 10% FBS (Gibco, Grand Island, NY, USA) and 1% antibiotics (penicillin/streptomycin) under conditions of 5% CO2 and 37° C. Next day, the aptamer stock (100 μM) was mixed with 5×SB18 buffer to prepare the stock at a concentration of 80 μM, and heated at 95° C. for 5 min, and then cooled at room temperature for 15 min or more. The medium was removed from the cultured cells, and 100 μL of a serum-free medium was added thereto, and cultured under conditions of 37° C. and 5% CO2 for 1 hr. The serum-free medium was removed, and then the cells were washed with 100 μL of 1×PBS. 100 μL of KRPH buffer was added, and cultured under conditions of 37° C. and 5% CO2 for 1 hr. The aptamer was diluted with KRPH buffer to 2-fold of the desired concentration, and added to a 96-well plate at 1× concentration, and cultured under conditions of 37° C. and 5% CO2 for 4 hr. After treatment with the aptamer, the KRPH buffer was removed, and then 100 μL of culture medium was added and cultured under conditions of 37° C. and 5% CO2 for […]. 6 days later, 10 μL of a kit solution of CCK-8 (Cell Counting Kit-8) was added to each well, and then cultured under conditions of 37° C. and 5% CO2 for 3 hr. Cell death levels were examined at […] using a microplate reader.

[2] = tested on: squamous cell carcinoma cells (A431); assay: Cell cycle analysis (propidium iodide, FACS); type: cell-based; settings: 4 hr treatment, FIG. 27
Description: (§1) To analyze the effects of combi 4 and combi 5 bound with three or five gemcitabines on the cell cycle of hepatoma cells, cell cycle analysis was performed. In detail, Hep3B, HepG2, and A431 cells were seeded in a 6-well plate at a density of 1×10^6/ml, and cultured using a DMEM medium containing 10% FBS and 1% antibiotics (penicillin/streptomycin) under conditions of 5% CO2 and 37° C., respectively. Next day, 100 μM of the modified aptamer stock was mixed with 5×SB18 buffer to prepare the aptamer at a concentration of 80 μM, and heated at 95° C. for 5 min, and then cooled at room temperature for 15 min or more. The medium was removed from the cultured cells, and replaced by a serum-free medium, and cultured under conditions of 37° C. and 5% CO2 for 1 hr. The serum-free medium was removed, and then the cells were washed with 2 ml of 1×PBS. 2 ml of KRPH buffer was added, and cultured under conditions of 37° C. and 5% CO2 for 1 hr. The aptamer was added, and cultured under conditions of 37° C. and 5% CO2 for 4 hr. The KRPH buffer was removed, and 2 ml of 1×PBS was added thereto to perform washing, and then PBS was removed. 2 ml of 1×PBS was added, and cells were scraped using a scraper, and collected in FACs tubes, followed by centrifugation at 4° C. and 2000 rpm for 4 minutes. 1/500-fold diluted RNAase A and propidium iodide diluted with PBS at a concentration of 50 μg/ml were added to the FACs tubes at a volume of 500 μL, followed by pipetting. Incubation was performed at room temperature for 30 min while blocking the light, and then cell cycle was measured.

[3] = tested on: hepatoma cells (Hep3B, HepG2); assay: Cell cycle analysis (propidium iodide, FACS); type: cell-based; settings: 4 hr treatment, FIGS. 25 and 26
Description: as §1

GPC3 = GPC3 (Homo sapiens, UniProt P51654); assay: Protein binding assay with 32P-labeled aptamers (Zorbax resin, filter plate, phosphorimager); settings: FIG. 1
GPC3, sequence (P51654 25-554): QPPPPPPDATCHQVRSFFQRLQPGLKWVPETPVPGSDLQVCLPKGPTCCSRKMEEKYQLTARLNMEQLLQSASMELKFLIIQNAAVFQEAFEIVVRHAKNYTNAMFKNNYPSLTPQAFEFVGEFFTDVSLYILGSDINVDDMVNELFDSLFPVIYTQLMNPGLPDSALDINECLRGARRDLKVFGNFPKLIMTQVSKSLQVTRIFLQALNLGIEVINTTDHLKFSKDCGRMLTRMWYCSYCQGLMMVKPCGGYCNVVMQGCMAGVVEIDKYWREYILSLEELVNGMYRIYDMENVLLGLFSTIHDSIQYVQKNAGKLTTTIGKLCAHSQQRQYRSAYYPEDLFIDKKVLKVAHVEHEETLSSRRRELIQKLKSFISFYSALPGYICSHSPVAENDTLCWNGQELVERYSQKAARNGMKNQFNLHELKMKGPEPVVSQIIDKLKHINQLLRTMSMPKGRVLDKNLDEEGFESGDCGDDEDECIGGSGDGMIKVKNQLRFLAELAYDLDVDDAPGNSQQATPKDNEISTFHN
Description: To select an aptamer which is the most specific to GPC3 from 7 aptamer libraries expected to be specific to GPC3 [2428-12-09, 2428-12-10, 2428-12-11, 2424-30-01, 2424-30-05, 2424-30-06, 2424-30-07, all 40-mer], a binding assay was performed through […] labeling. In detail, to […] RI-labeled and unlabeled oligonucleotide region at the oligonucleotide 3′-end of each candidate aptamer sequence, 0.25 μL of α-32P, 0.25 μL of DNA nucleotidylexotransferase (terminal transferase), 1 μL of 10×NEB buffer (New England Biolabs, USA), 1 μL of CoCl2, 7.5 μL of a template (aptamer sequence) (total 10 μL) were added to a plate, which was then sealed with foil, and then incubated at 37° C. for 30 min (enzyme incubation). After incubation at 70° C. for 10 min (enzyme incubation), each of the incubated samples was diluted with 30 μL of distilled water. The lower part of the Microspin G-50 column was removed and a tube was put thereon. After spinning at 800 rcf for 1 min, the tube was removed. The sample was put in a resin, followed by spinning at room temperature and 800 rcf for 2 min.
The aptamers, from which RI-labeled and unlabeled oligonucleotide ends were removed, were diluted with 100 μL of 1×SB18T0.05 to 20,000 cpm. The aptamers were heated at 95° C. for 5 min, and subsequently, cooled at 37° C. for 15 min. 100 nM of protein (GPC3) was subjected to 4.64-fold serial dilution, and each 30 μL of a total of 8 points was added to each well. 200 μL of 1×SB18T0.05 was added to the aptamers, of which heating and cooling were completed, and then 30 μL thereof was added to each well for a total volume of 60 μL. 2 μL of the aptamer was dropped as an input control on a nylon filter, followed by incubation at 37° C. for 30 min. During incubation, 30 μL of 1×SB18T0.05 was added to a filter plate in advance. After incubation, 5.5 μL of Zorbax resin was added, and allowed to react at 1400 rpm for 1 min. […] The screen was analyzed, and the binding degree according to each protein concentration was derived (percentage bound value).

Molecule | concentration from which a cell-killing effect is shown [1] | cell cycle arrest [2] | cell cycle arrest [3] | binding ability among the candidates (GPC3; 7 candidate 40-mer aptamers) | maximum binding capacity (Bmax) (GPC3) | Kd (GPC3; read-out: dissociation constant (Kd))
Combi 5 G(5) (DNA GNGAANGCGNNGAANNANWYSSSNNCAGNCANSAS; 5 gemcitabines, 2'-OMe, BzdU; Combi 5 G(5); (1)..(1) G is 2-O-Methoxy-DNA.; (2)..(2) n is BzdU.; (3)..(3) G is 2-O-Methoxy-DNA.; (4)..(4) A is 2-Fluorine-DNA.; (5)..(5) A is 2-Fluorine-DNA.; (6)..(6) n is BzdU.; (10)..(10) n is BzdU.; (11)..(11) n is BzdU.; (12)..(12) G is 2-Fluorine-DNA.; (13)..(13) A is 2-Fluorine-DNA.; (14)..(14) A is 2-O-Methoxy-DNA.; (15)..(15) n is BzdU.; (16)..(16) n is BzdU.; (17)..(17) A is 2-O-Methox) | 100 nM | no cell cycle arrest | arrested hepatoma cells at the G1/S phase | – | – | –
Combi 4 G(5) (DNA GNGAANGCGNNGAANNANGYSSSNNCAGNCANSAS; 5 gemcitabines, 2'-OMe, 2'-F, BzdU, 3' idT; Combi 4 G(5); (1)..(1) G is 2-O-Methoxy-DNA.; (2)..(2) n is BzdU.; (3)..(3) G is 2-O-Methoxy-DNA.; (4)..(4) A is 2-Fluorine-DNA.; (5)..(5) A is 2-Fluorine-DNA.; (6)..(6) n is BzdU.; (10)..(10) n is BzdU.; (11)..(11) n is BzdU.; (12)..(12) G is 2-Fluorine-DNA.; (13)..(13) A is 2-Fluorine-DNA.; (14)..(14) A is 2-Fluorine-DNA.; (15)..(15) n is BzdU.; (16)..(16) n is BzdU.; (17)..(17) A is 2-Fluorine-) | 100 nM | no cell cycle arrest | arrested hepatoma cells at the G1/S phase | – | – | –
Combi 11 G(3) (DNA GNGAANGCGNNGAANNANWYSSSNNCAGNCANCAC; gemcitabines, 2'-MOE, 2'-F, BzdU, 3' idT; Combi 11 G(3); (1)..(1) G is 2-Methoxyethyl-DNA.; (2)..(2) n is BzdU.; (3)..(3) G is 2-Methoxyethyl-DNA.; (4)..(4) A is 2-Fluorine-DNA.; (5)..(5) A is 2-Fluorine-DNA.; (6)..(6) n is BzdU.; (10)..(10) n is BzdU.; (11)..(11) n is BzdU.; (12)..(12) G is 2-Fluorine-DNA.; (13)..(13) A is 2-Fluorine-DNA.; (14)..(14) A is 2-Methoxyethyl-DNA.; (15)..(15) n is BzdU.; (16)..(16) n is BzdU.; (17)..(17) A is) | 200 nM | – | – | – | – | –
12-10: SEQ ID NO: 1, 40-mer GPC3-specific aptamer with BzdU bases (GGGAAGnGAAnGCGnnGAAnnAnGnCCCnnCAGnCAnCAC; BzdU bases, as printed in the source, key not given here) | – | – | – | most excellent binding ability | 0.79 | 1.5 nM
Nc1ccn([C@@H]2O[C@H](CO)[C@@H](O)C2(F)F)c(=O)n1 [gemcitabine, 2′,2′-difluoro 2′-deoxycytidine, reference compound] | – | no cell cycle arrest | – | – | – | –
